Measured values taken from patent US9884832B2 (priority 2011, dated 2018).
Where two headings read alike, the source gives them in different places.

What was measured:
[1] = biological target: AM2 S31N (serine→asparagine mutation at residue 31 in the M2 protein) (Influenza A virus, UniProt P0DOF5, S31N); format: cell-based, influenza virus A/Udorn/72
[2] = biological target: AM2 V27A (valine→alanine mutation at residue 27 in the M2 protein) (Influenza A virus, UniProt P0DOF5, V27A); format: cell-based, influenza virus A/Udorn/72

Row | SMILES | S31N OOcyte Inhibition at 100 uM (%) ([1]; pH 5.5) | S31N OOcyte Inhibition at 100 uM (%) [1] | other results
1 | N#Cc1ccc(CNC23CC4CC(CC(C4)C2)C3)cc1 [Example 14, 4-(Adamantan-1-ylaminomethyl)-benzonitrile] | B (key: (A)=31-95%; (B)=0-30%) |  | V27A OOcyte Inhibition at 100 uM (%) ([2]; pH 5.5): B (key: (A)=31-95%; (B)=0-30%)
2 | c1cc2c(cc1CNC13CC4CC(CC(C4)C1)C3)OCO2 [Example 49] | B (key: (A)=31-95%; (B)=0-30%) |  | V27A OOcyte Inhibition at 100 uM (%) ([2]; pH 5.5): B (key: (A)=31-95%; (B)=0-30%)
3 | Brc1ccc(CNC23CC4CC(CC(C4)C2)C3)cc1 [Example 41, N-(4-Bromobenzyl)adamantan-1-amine] | A (key: (A)=31-95%; (B)=0-30%) |  | V27A OOcyte Inhibition at 100 uM (%) ([2]; pH 5.5): B (key: (A)=31-95%; (B)=0-30%)
4 | c1ccc2[nH]c(CNC34CC5CC(CC(C5)C3)C4)nc2c1 [Example 92, Adamantan-1-yl-(1H-benzoimidazol-2-ylmethyl)-amine] | A (key: (A)=31-95%; (B)=0-30%) |  | V27A OOcyte Inhibition at 100 uM (%) ([2]; pH 5.5): B (key: (A)=31-95%; (B)=0-30%)
5 | CC(=O)Oc1ccc(CNC23CC4CC(CC(C4)C2)C3)cc1 [Example 33, Acetic acid 4-(adamantan-1-ylaminomethyl)-phenyl ester] | A (key: (A)=31-95%; (B)=0-30%) |  | V27A OOcyte Inhibition at 100 uM (%) ([2]; pH 5.5): B (key: (A)=31-95%; (B)=0-30%)
6 | CCOc1ccc(CNC23CC4CC(CC(C4)C2)C3)cc1 [Example 1a, Adamantan-1-yl-(4-ethoxy-benzyl)-amine] |  | A (key: (A)=31-95%; (B)=0-30%) | V27A OOcyte Inhibition at 100 uM (%) [2]: B (key: (A)=31-95%; (B)=0-30%)
7 | CC(=O)c1sccc1-c1ccc(CNC23CC4CC(CC(C4)C2)C3)cc1 [Example 43, 1-(3-(4-((Adamantan-1-ylamino)methyl)phenyl)thiophen-2-yl)ethanone] | A (key: (A)=31-95%; (B)=0-30%) |  | V27A OOcyte Inhibition at 100 uM (%) ([2]; pH 5.5): A (key: (A)=31-95%; (B)=0-30%)
8 | COc1ccc2cc(CNC34CC5CC(CC(C5)C3)C4)ccc2c1 [Example 40a, Adamantan-1-yl-(6-methoxy-naphthalen-2-ylmethyl)-amine] |  | B (key: (A)=31-95%; (B)=0-30%) | V27A OOcyte Inhibition at 100 uM (%) [2]: A (key: (A)=31-95%; (B)=0-30%)
9 | COc1ccccc1CNC12CC3CC(CC(C3)C1)C2 [Example 29, Adamantan-1-yl-(2-methoxy-benzyl)-amine] | B (key: (A)=31-95%; (B)=0-30%) |  | V27A OOcyte Inhibition at 100 uM (%) ([2]; pH 5.5): B (key: (A)=31-95%; (B)=0-30%)
10 | Oc1cc(OCc2ccccc2)ccc1CNC12CC3CC(CC(C3)C1)C2 [Example 37a, 2-(Adamantan-1-ylaminomethyl)-5-benzyloxy-phenol] |  | A (key: (A)=31-95%; (B)=0-30%) | V27A OOcyte Inhibition at 100 uM (%) [2]: B (key: (A)=31-95%; (B)=0-30%)
11 | Oc1ccc(CNC23CC4CC(CC2C4)C3)c(O)c1 [Example 111, 4-[(Hexahydro-2,5-methano-pentalen-3a-ylamino)-methyl]-benzene-1,3-diol] | A (key: (A)=31-95%; (B)=0-30%) |  | V27A OOcyte Inhibition at 100 uM (%) ([2]; pH 5.5): B (key: (A)=31-95%; (B)=0-30%)
12 | c1cc(-c2nc(CNC34CC5CC(CC(C5)C3)C4)no2)cs1 [Example 143a, N-((5-(thiophen-3-yl)-1,2,4-oxadiazol-3-yl)methyl)adamantan-1-amine] |  | A (key: (A)=31-95%; (B)=0-30%) | V27A OOcyte Inhibition at 100 uM (%) [2]: B (key: (A)=31-95%; (B)=0-30%)
13 | c1csc(-c2ncc(CNC34CC5CC(CC(C5)C3)C4)s2)c1 [Example 144a, N-((2-(thiophen-2-yl)thiazol-5-yl)methyl)adamantan-1-amine] |  | A (key: (A)=31-95%; (B)=0-30%) | V27A OOcyte Inhibition at 100 uM (%) [2]: B (key: (A)=31-95%; (B)=0-30%)
14 | O=[N+]([O-])c1cc(CNC23CC4CC(CC(C4)C2)C3)ccc1O [Example 52, 4-(Adamantan-1-ylaminomethyl)-2-nitro-phenol] | B (key: (A)=31-95%; (B)=0-30%) |  | V27A OOcyte Inhibition at 100 uM (%) ([2]; pH 5.5): A (key: (A)=31-95%; (B)=0-30%)
15 | c1cc(CNC23CC4CC(CC(C4)C2)C3)cc(-c2ccco2)c1 [Example 30a, N-(3-(Furan-2-yl)benzyl)adamantan-1-amine] |  | B (key: (A)=31-95%; (B)=0-30%) | V27A OOcyte Inhibition at 100 uM (%) [2]: A (key: (A)=31-95%; (B)=0-30%)
16 | CSc1ccc(-c2cc(CNC34CC5CC(CC3C5)C4)no2)cc1 [Example 90b, (2R,3as,5S,6as)-N-((5-(4-(methylthio)phenyl)isoxazol-3-yl)methyl)octahydro-2,5-methanopentalen-3a-amine] | A (key: (A)=31-95%; (B)=0-30%) |  | 
17 | Oc1ccc(CNC23CC4CC(CC(O)(C4)C2)C3)c(O)c1 [Example 196a, 4-[(3-Hydroxy-adamantan-1-ylamino)-methyl]-benzene-1,3-diol] |  | A (key: (A)=31-95%; (B)=0-30%) | 
18 | Fc1ccc(-c2cc(CNC34CC5CC(CC(C5)C3)C4)no2)cc1 [Example 118a, N-((5-(4-fluorophenyl)isoxazol-3-yl)methyl)adamantan-1-amine] |  | A (key: (A)=31-95%; (B)=0-30%) | 
19 | c1sc(CNC23CC4CC(CC(C4)C2)C3)cc1C1CC1 [Example 48b, N-((4-Cyclopropylthiophen-2-yl)methyl)adamantan-1-amine] | A (key: (A)=31-95%; (B)=0-30%) |  | 
20 | COc1ccc2[nH]c(CNC34CC5CC(CC(C5)C3)C4)cc2c1 [Example 182a] |  | A (key: (A)=31-95%; (B)=0-30%) | 
21 | Cc1noc(C)c1-c1nc(CNC23CC4CC(CC(C4)C2)C3)no1 [Example 25b, N-((5-(3,5-dimethylisoxazol-4-yl)-1,2,4-oxadiazol-3-yl)methyl)adamantan-1-amine] | B (key: (A)=31-95%; (B)=0-30%) |  | 

Row | SMILES | S31N OOcyte Inhibition at 100 uM (%) ([1]; pH 5.5) | S31N OOcyte Inhibition at 100 uM (%) [1] | other results
22 | Cc1csc(-c2ccc(CNC34CC5CC(CC(C5)C3)C4)s2)c1 [Example 51b, N-((4′-Methyl-[2,2′-bithiophen]-5-yl)methyl)adamantan-1-amine] | A (key: (A)=31-95%; (B)=0-30%) |  | 
23 | CC(NC12CC3CC(CC(C3)C1)C2)c1ccc(C(C)(C)C)cc1 (centres unmarked) [Example 3b, N-(1-(4-(tert-butyl)phenyl)ethyl)adamantan-1-amine] | B (key: (A)=31-95%; (B)=0-30%) |  | 
24 | C1CCC(c2nc(CNC34CC5CC(CC(C5)C3)C4)no2)C1 [Example 109a, N-((5-cyclopentyl-1,2,4-oxadiazol-3-yl)methyl)adamantan-1-amine] |  | A (key: (A)=31-95%; (B)=0-30%) | 
25 | Nc1ncc(CNC23CC4CC(CC(C4)C2)C3)s1 [Example 93a, 5-((adamantan-1-ylamino)methyl)thiazol-2-amine] |  | B (key: (A)=31-95%; (B)=0-30%) | 
26 | C1CCC(c2nc(CNC34CC5CC(CC(C5)C3)C4)no2)CC1 [Example 24b] | A (key: (A)=31-95%; (B)=0-30%) |  | 
27 | Cn1c(CNC23CC4CC(CC(C4)C2)C3)nc2ccccc21 [Example 180a, Adamantan-1-yl-(1-methyl-1H-benzoimidazol-2-ylmethyl)-amine] |  | B (key: (A)=31-95%; (B)=0-30%) | 
28 | CCSc1ncc(CNC23CC4CC(CC(C4)C2)C3)cn1 [Example 56b, N-((2-(ethylthio)pyrimidin-5-yl)methyl)adamantan-1-amine] | A (key: (A)=31-95%; (B)=0-30%) |  | 
29 | Fc1ccc(-c2nc(CNC34CC5CC(CC(C5)C3)C4)no2)cc1 [Example 163a] |  | A (key: (A)=31-95%; (B)=0-30%) | 
30 | c1c[nH]c(CNC23CC4CC(CC(C4)C2)C3)c1 [Example 72a, Adamantan-1-yl-(1H-pyrrol-2-ylmethyl)-amine] |  | B (key: (A)=31-95%; (B)=0-30%) | 
31 | C1COC(c2nc(CNC34CC5CC(CC(C5)C3)C4)no2)C1 (centres unmarked) [Example 21b, N-((5-(tetrahydrofuran-2-yl)-1,2,4-oxadiazol-3-yl)methyl)adamantan-1-amine] | A (key: (A)=31-95%; (B)=0-30%) |  | 
32 | c1nc(C2CCCCC2)ncc1CNC12CC3CC(CC(C3)C1)C2 [Example 61b, N-((2-cyclohexylpyrimidin-5-yl)methyl)adamantan-1-amine] | A (key: (A)=31-95%; (B)=0-30%) |  | 
33 | CC(C)Cc1nc(CNC23CC4CC(CC(C4)C2)C3)no1 [Example 22b, N-((5-isobutyl-1,2,4-oxadiazol-3-yl)methyl)adamantan-1-amine] | A (key: (A)=31-95%; (B)=0-30%) |  | 
34 | Clc1ccccc1-c1nc(CNC23CC4CC(CC(C4)C2)C3)no1 [Example 31b, N-((5-(2-chlorophenyl)-1,2,4-oxadiazol-3-yl)methyl)adamantan-1-amine] | A (key: (A)=31-95%; (B)=0-30%) |  | 
35 | C(#Cc1cccs1)CNC12CC3CC(CC(C3)C1)C2 [Example 88b] | A (key: (A)=31-95%; (B)=0-30%) |  | 
36 | CC(C)n1cc(CNC23CC4CC(CC(C4)C2)C3)cn1 [Example 85a, N-((1-isopropyl-1H-pyrazol-4-yl)methyl)adamantan-1-amine] |  | B (key: (A)=31-95%; (B)=0-30%) | 
37 | Clc1ccccc1-c1cc(CNC23CC4CC(CC(C4)C2)C3)no1 [Example 45b, N-((5-(2-chlorophenyl)isoxazol-3-yl)methyl)adamantan-1-amine] | A (key: (A)=31-95%; (B)=0-30%) |  | 
38 | OC12CC3CC(C1)CC(NCc1noc(C4CCCCC4)n1)(C3)C2 [Example 86b, (1s,3r,5R,7S)-3-(((5-cyclohexyl-1,2,4-oxadiazol-3-yl)methyl)amino)adamantan-1-ol] | A (key: (A)=31-95%; (B)=0-30%) |  | 
39 | Fc1cc(F)cc(-c2cc(CNC34CC5CC(CC(C5)C3)C4)no2)c1 [Example 33b, N-((5-(3,5-difluorophenyl)isoxazol-3-yl)methyl)adamantan-1-amine] | A (key: (A)=31-95%; (B)=0-30%) |  | 
40 | COc1ccc(-c2noc(CNC34CC5CC(CC(C5)C3)C4)n2)cc1OC [Example 35b, N-((3-(3,4-dimethoxyphenyl)-1,2,4-oxadiazol-5-yl)methyl)adamantan-1-amine] | A (key: (A)=31-95%; (B)=0-30%) |  | 
41 | c1cc(-c2cc(CNC34CC5CC(CC(C5)C3)C4)no2)cs1 [Example 150a, Adamantan-1-yl-(5-thiophen-3-yl-isoxazol-3-ylmethyl)-amine] |  | A (key: (A)=31-95%; (B)=0-30%) | 
